In the supplement of paper PMC10307832:

Tests used:
Assay in all cases: relative viability (nuclei count vs DMSO), 5 days (fraction); higher = more cells survive
[1] = test system: 201T
Outline: (§1)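 Relative viability equals treated-well nuclei counts divided by vehicle-well nuclei counts. Counts came from 4× images of lung cancer cell lines grown in 1536-well plates for 5 days after pin-tool dosing on the day after seeding. Dosing used one drug alone or a fixed anchor-drug dose plus five library-drug doses (not always all listed) in √10 steps, and values are medians of duplicate plates.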

[2] = test system: A-427
Outline: as §1

[3] = test system: BEN
Outline: as §1

[4] = test system: COR-L23
Outline: as §1

[5] = test system: EKVX
Outline: as §1

[6] = test system: HARA
Outline: as §1

[7] = test system: HCC-15
Outline: as §1

[8] = test system: HCC-44
Outline: as §1

[9] = test system: HCC-827
Outline: as §1

[10] = test system: NCI-H1437
Outline: as §1

[11] = test system: NCI-H1650
Outline: as §1

[12] = test system: NCI-H1666
Outline: as §1

[13] = test system: NCI-H1792
Outline: as §1

[14] = test system: NCI-H1975
Outline: as §1

[15] = test system: NCI-H2342
Outline: as §1

[16] = test system: NCI-H23
Outline: as §1

[17] = test system: NCI-H358
Outline: as §1

[18] = test system: NCI-H441
Outline: as §1

[19] = test system: NCI-H596
Outline: as §1

[20] = test system: NCI-H650
Outline: as §1

[21] = test system: NCI-H838
Outline: as §1

[22] = test system: SK-MES-1
Outline: as §1

[23] = test system: SW 900
Outline: as §1

With `O=c1cc(-c2cccc3c2Sc2ccccc2S3)oc(N2CCOCC2)c1` + Nc1nc2[nH]cc(CCc3ccc(C(=O)N[C@@H](CCC(=O)O)C(=O)O)cc3)c2c(=O)[nH]1 [Pemetrexed] (partner 0.2 µM) the relative viability ([1]; first compound 0.08 µM) was 0.302, the relative viability ([1]; first compound 0.253 µM) was 0.353 and the relative viability ([1]; first compound 0.8 µM) was 0.37. For the same compound, the relative viability ([1]; first compound 2.53 µM) was 0.287, the relative viability ([1]; first compound 8 µM) was 0.302 and the relative viability ([2]; first compound 0.08 µM) was 0.808. For the same compound, the relative viability ([2]; first compound 0.253 µM) was 1, the relative viability ([2]; first compound 0.8 µM) was 0.991 and the relative viability ([2]; first compound 2.53 µM) was 0.92. It also gave a relative viability ([2]; first compound 8 µM) of 0.993, a relative viability ([3]; first compound 0.08 µM) of 0.72 and a relative viability ([3]; first compound 0.253 µM) of 0.834. It also gave a relative viability ([3]; first compound 0.8 µM) of 0.696, a relative viability ([3]; first compound 2.53 µM) of 0.801 and a relative viability ([3]; first compound 8 µM) of 1.07. It also gave a relative viability ([4]; first compound 0.08 µM) of 0.194, a relative viability ([4]; first compound 0.253 µM) of 0.215 and a relative viability ([4]; first compound 0.8 µM) of 0.215. It also gave a relative viability ([4]; first compound 2.53 µM) of 0.195, a relative viability ([4]; first compound 8 µM) of 0.197 and a relative viability ([5]; first compound 0.08 µM) of 0.428. For the same compound, the relative viability ([5]; first compound 0.253 µM) was 0.376, the relative viability ([5]; first compound 0.8 µM) was 0.381 and the relative viability ([5]; first compound 2.53 µM) was 0.482. For the same compound, the relative viability ([5]; first compound 8 µM) was 0.436, the relative viability ([6]; first compound 0.08 µM) was 0.24 and the relative viability ([6]; first compound 0.253 µM) was 0.227. For the same compound, the relative viability ([6]; first compound 0.8 µM) was 0.228, the relative viability ([6]; first compound 2.53 µM) was 0.251 and the relative viability ([6]; first compound 8 µM) was 0.286. It also gave a relative viability ([7]; first compound 0.08 µM) of 0.23, a relative viability ([7]; first compound 0.253 µM) of 0.253 and a relative viability ([7]; first compound 0.8 µM) of 0.207. The relative viability ([7]; first compound 2.53 µM) was 0.204, the relative viability ([7]; first compound 8 µM) was 0.228 and the relative viability ([8]; first compound 0.08 µM) was 0.63. The relative viability ([8]; first compound 0.253 µM) was 0.641, the relative viability ([8]; first compound 0.8 µM) was 0.607 and the relative viability ([8]; first compound 2.53 µM) was 0.67. For the same compound, the relative viability ([8]; first compound 8 µM) was 0.676, the relative viability ([9]; first compound 0.08 µM) was 0.231 and the relative viability ([9]; first compound 0.253 µM) was 0.272. The relative viability ([9]; first compound 0.8 µM) was 0.244, the relative viability ([9]; first compound 2.53 µM) was 0.264 and the relative viability ([9]; first compound 8 µM) was 0.228. It also gave a relative viability ([10]; first compound 0.08 µM) of 0.339, a relative viability ([10]; first compound 0.253 µM) of 0.354 and a relative viability ([10]; first compound 0.8 µM) of 0.435. The relative viability ([10]; first compound 2.53 µM) was 0.288, the relative viability ([10]; first compound 8 µM) was 0.3 and the relative viability ([11]; first compound 0.08 µM) was 0.362. The relative viability ([11]; first compound 0.253 µM) was 0.366, the relative viability ([11]; first compound 0.8 µM) was 0.407 and the relative viability ([11]; first compound 2.53 µM) was 0.415. For the same compound, the relative viability ([11]; first compound 8 µM) was 0.36, the relative viability ([12]; first compound 0.08 µM) was 0.844 and the relative viability ([12]; first compound 0.253 µM) was 0.913. It also gave a relative viability ([12]; first compound 0.8 µM) of 0.762, a relative viability ([12]; first compound 2.53 µM) of 0.758 and a relative viability ([12]; first compound 8 µM) of 0.793. For the same compound, the relative viability ([13]; first compound 0.08 µM) was 0.75, the relative viability ([13]; first compound 0.253 µM) was 1.54 and the relative viability ([13]; first compound 0.8 µM) was 0.775. For the same compound, the relative viability ([13]; first compound 2.53 µM) was 0.776, the relative viability ([13]; first compound 8 µM) was 0.729 and the relative viability ([14]; first compound 0.08 µM) was 0.318. It also gave a relative viability ([14]; first compound 0.253 µM) of 0.29, a relative viability ([14]; first compound 0.8 µM) of 0.313 and a relative viability ([14]; first compound 2.53 µM) of 0.287. The relative viability ([14]; first compound 8 µM) was 0.288, the relative viability ([15]; first compound 0.08 µM) was 0.703 and the relative viability ([15]; first compound 0.253 µM) was 0.817. For the same compound, the relative viability ([15]; first compound 0.8 µM) was 0.718, the relative viability ([15]; first compound 2.53 µM) was 0.725 and the relative viability ([15]; first compound 8 µM) was 0.848. It also gave a relative viability ([16]; first compound 0.08 µM) of 0.584, a relative viability ([16]; first compound 0.253 µM) of 0.902 and a relative viability ([16]; first compound 0.8 µM) of 0.72. It also gave a relative viability ([16]; first compound 2.53 µM) of 0.518, a relative viability ([16]; first compound 8 µM) of 0.575 and a relative viability ([17]; first compound 0.08 µM) of 0.161. The relative viability ([17]; first compound 0.253 µM) was 0.188, the relative viability ([17]; first compound 0.8 µM) was 0.183 and the relative viability ([17]; first compound 2.53 µM) was 0.176. It also gave a relative viability ([17]; first compound 8 µM) of 0.175, a relative viability ([18]; first compound 0.08 µM) of 0.258 and a relative viability ([18]; first compound 0.253 µM) of 0.268. It also gave a relative viability ([18]; first compound 0.8 µM) of 0.255, a relative viability ([18]; first compound 2.53 µM) of 0.26 and a relative viability ([18]; first compound 8 µM) of 0.241. It also gave a relative viability ([19]; first compound 0.08 µM) of 0.422, a relative viability ([19]; first compound 0.253 µM) of 0.52 and a relative viability ([19]; first compound 0.8 µM) of 0.536. For the same compound, the relative viability ([19]; first compound 2.53 µM) was 0.543, the relative viability ([19]; first compound 8 µM) was 0.478 and the relative viability ([20]; first compound 0.08 µM) was 0.917. It also gave a relative viability ([20]; first compound 0.253 µM) of 0.964, a relative viability ([20]; first compound 0.8 µM) of 0.878 and a relative viability ([20]; first compound 2.53 µM) of 0.74. The relative viability ([20]; first compound 8 µM) was 0.866, the relative viability ([21]; first compound 0.08 µM) was 0.266 and the relative viability ([21]; first compound 0.253 µM) was 0.245. It also gave a relative viability ([21]; first compound 0.8 µM) of 0.249, a relative viability ([21]; first compound 2.53 µM) of 0.226 and a relative viability ([21]; first compound 8 µM) of 0.226. The relative viability ([22]; first compound 0.08 µM) was 1.07, the relative viability ([22]; first compound 0.253 µM) was 1.07 and the relative viability ([22]; first compound 0.8 µM) was 0.838. The relative viability ([22]; first compound 2.53 µM) was 0.792, the relative viability ([22]; first compound 8 µM) was 0.833 and the relative viability ([23]; first compound 0.253 µM) was 0.492. For the same compound, the relative viability ([23]; first compound 0.8 µM) was 0.495, the relative viability ([23]; first compound 2.53 µM) was 0.439 and the relative viability ([23]; first compound 8 µM) was 0.438.
